Measured values taken from US7119111B2, “2-oxo-1,3,4-trihydroquinazolinyl derivatives and methods of use” (Amgen, Inc., priority 2002, dated 2006).

Experiments:
[1] = Cell Proliferation Assay (BrdU incorporation); format: cell-based; conditions: Homo sapiens; 48 h incubation, BrdU labeling; cell line not specified; read-out: inhibited cell proliferation IC50
Description: Cell proliferation was measured using a calorimetric immunoassay (B/M Roche #164 7229), based on the measurement of pyrimidine analog BrdU incorporation during DNA synthesis in proliferating cells. Cells, e.g., human PC-3 prostate carconima cells, huFSF normal human foreskin fibroblast cells, HCT 116 human colon carcinoma cells or HT 29 human colon carcinoma cells, were cultured in a 96-well plate for 24 h, until a cell count of 3×10^3 to 6×10^3 cells per well in duplicate wells were achieved, in a well volume of 200 μl. The media was changed and 1 μl of 200× control inhibitors or compounds was added to each well. Cells are incubated for 48 h at 37° C. The cells were labeled with BrdU for 4 h at 37° C. The labeling medium was removed and in one step, the cells were fixed and the DNA was denatured (30 min at RT). Anti-BrdU-POD antibody was added to bind to the BrdU incorporated in newly synthesized cellular DNA (60–90 min at RT). The cells were washed 3×with washing buffer, substrate (100 μl) was added and the cells were incubated for 10 min at RT. The substrate reaction was stopped by adding 25 μl of 1M H2SO4. The amount of BrdU incorporated was quantified by measuring the absorbance at 450 nm using ELISA reader. IC50's were calculated using GraFit (Sigma).

Row | melting point [°C] | Compound | IC50 [1] [µM]
1 |  | COC(=O)c1cccc2c1CN(c1csc(-c3ccncc3)n1)C(=O)N2 [Example 2, Methyl 2-oxo-3-(2-(4-pyridyl)(1,3-thiazol-4-yl))-1,3,4-trihydroquinazoline-5-carboxylate] | < 5
2 | 320 to 322 | O=C1Nc2cc(-c3cccc(O)c3)ccc2CN1c1csc(-c2ccncc2)n1 [Example 31, 7-(3-Hydroxyphenyl)-3-(2-(4-pyridyl) (1,3-thiazol-4-yl))-1,3,4-trihydroquinazolin-2-one] | < 5
3 |  | O=C1Nc2cccc(CN3CCCCC3)c2CN1c1csc(-c2ccncc2)n1 [Example 15, 5-(Piperidylmethyl)-3-(2-(4-pyridyl)(1,3-thiazol-4-yl))-1,3,4-trihydroquinazolin-2-one] | < 5
4 |  | O=C1Nc2cccc(-c3ccccc3)c2CN1c1csc(-c2ccncc2)n1 [Example 34, 5-Phenyl-3-(2-(4-pyridyl)(1,3-thiazol-4-yl))-1,3,4-trihydroquinazolin-2-one] | < 5
5 | 206 to 208 | O=C1Nc2cc(-c3cccc(OCCN4CCCCC4)c3)ccc2CN1c1csc(-c2ccncc2)n1 [Example 32, 7-[3-(2-Piperidylethoxy)phenyl]-3-(2-(4-pyridyl)(1,3-thiazol-4-yl))-1,3,4-trihydroquinazolin-2-one] | < 5
